Test results published in patent publication US20150119352A1, “DINUCELOSIDE POLYPHOSPHATES FOR THE TREATMENT OF PAIN” (GlobalAcorn Ltd., priority 2012, published 2015).
Like-named read-outs stand apart in the source and are kept apart here.

Experiments:
P2X3 receptors = target: T1, P2X3 receptors (Homo sapiens, UniProt P56373); settings: Jarvis et al, 2002; cited from earlier work
T1 sequence (P56373 1-397): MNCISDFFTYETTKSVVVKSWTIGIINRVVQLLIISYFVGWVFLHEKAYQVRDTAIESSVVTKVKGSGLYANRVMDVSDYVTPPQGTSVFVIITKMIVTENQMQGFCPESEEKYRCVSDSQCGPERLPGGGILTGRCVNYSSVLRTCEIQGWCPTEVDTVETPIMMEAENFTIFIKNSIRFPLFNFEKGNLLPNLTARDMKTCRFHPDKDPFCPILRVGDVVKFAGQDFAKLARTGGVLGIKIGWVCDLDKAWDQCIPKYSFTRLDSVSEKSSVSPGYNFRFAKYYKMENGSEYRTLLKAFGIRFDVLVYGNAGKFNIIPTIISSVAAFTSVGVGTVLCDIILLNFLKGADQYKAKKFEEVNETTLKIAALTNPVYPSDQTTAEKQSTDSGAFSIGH

male Wistar rats = experiment: Formalin test (nociceptive behaviour, spontaneous jerking of injected paw); format: in vivo, rat; settings: for IC50: Rattus norvegicus, Table 1, concentration; for IC50 First phase (acute pain), calculated / IC50 Second phase (chronic pain), calculated: Table 1, assuming 40 g rat body weight; for First phase (acute pain) / First phase (acute pain) (μg/kg) / Second phase (chronic pain) / Second phase (chronic pain) (μg/kg): Table 2; for First phase (acute pain) Human (70 kg) nmol / Second phase (chronic pain) Human (70 kg) nmol: Table 2, estimated indicative dose for 70 kg human; for First phase (acute pain) Rat (40 g) nmol / Second phase (chronic pain) Rat (40 g) nmol: Table 2, per 40 g rat
Method: FIG. 6. Effects of subcutaneous Ap4A analogues on pain responses induced by intraplantar (right hindpaw) formalin injection. Rats were subcutaneously injected with formalin solution alone (0.5%, 50 μL, control) or co-injected with the formalin solution and solutions with AppCH2ppA (1 μM-100 μM, 100 μL) or AppNHppA (0.1 μM-100 μM, 100 μL). Age-matched control animals were injected with saline. A. Time-course of the effects of subcutaneous AppCH2ppA (a) and AppNHppA (b) on the number of the spontaneous jerkings of the injected paw. B. Bar-graphs of the effects of AppCH2ppA (a, b) and AppNHppA (c, d) on the integral number of spontaneous jerkings. Measurements were made during the acute phase (0-6 min) and tonic phase (7-45 min) of the formalin response. C. Dose-response curves for AppCH2ppA (a) and AppNHppA (b) during tonic and acute phases.
The formalin test experiments were performed on 21-day old male Wistar rats, weighing 40±5 g according to the method described previously (Simonetti et al, 2006; Yegutkin et al, 2008). Briefly, animal was acclimated to an acrylic observation chamber for at least 1 h before the injection of formalin ([…] of 0.5% solution in 0.9% saline) into the dorsal surface of the right hindpaw. Age-matched control animals were injected with saline (100 μL). Immediately after the injection, each animal was returned to the observation chamber and its behavioural characteristics were recorded for 45 min. We noticed consistently observed type of response: spontaneous jerking of the injected paw. The number of jerks was measured for each […], using self-developed computer software.
The effects of AppNHppA and AppCH2ppA were examined on the behavioral reactions of rats in inflammatory pain models. Injection of diluted formalin into a rodent's hindpaw produces a biphasic nociceptive response consisting of immediate (acute phase) and tonic (inflammatory phase) components. The first phase of a formalin response (i.e. 0-5 min after injection) involves a direct effect of formalin on the pain receptors, while changes in animal behavior during the second tonic phase (i.e. 7-45 min after injection) are caused by hyperalgesia that develops due to the sensitization of nociceptive and spinal neurons via mechanisms that are triggered by repetitive stimulation during the first phase.

[1] = read-out: IC50 First phase (acute pain)
[2] = read-out: IC50 Second phase (chronic pain)

Row | IC50 (male Wistar rats; [1]) | IC50 (male Wistar rats; [2]) | SMILES | concentration range of binding to P2X3 receptors (P2X3 receptors) | IC50 First phase (acute pain), calculated (male Wistar rats) | IC50 Second phase (chronic pain), calculated (male Wistar rats) | First phase (acute pain) (male Wistar rats) | First phase (acute pain) (μg/kg) (male Wistar rats) | Second phase (chronic pain) (male Wistar rats) | Second phase (chronic pain) (μg/kg) (male Wistar rats) | First phase (acute pain) Human (70 kg) nmol (male Wistar rats) | Second phase (chronic pain) Human (70 kg) nmol (male Wistar rats) | First phase (acute pain) Rat (40 g) nmol (male Wistar rats) | Second phase (chronic pain) Rat (40 g) nmol (male Wistar rats)
1 | – | – | O=C(O)c1cc(C(=O)O)c(C(=O)N(Cc2cccc(Oc3ccccc3)c2)[C@H]2CCCc3ccccc32)cc1C(=O)O [A-317491] | within a micromolar range | – | – | – | – | – | – | – | – | – | –
2 | > 100000 nM | 180 ± 120 nM | Nc1nc2c(ncn2[C@@H]2O[C@H](COP(=O)(O)OP(=O)(O)CP(=O)(O)OP(=O)(O)OC[C@H]3O[C@@H](n4cnc5c(N)ncnc54)C(O)C3O)C(O)[C@@H]2O)c(=O)[nH]1 (stereo partly shown) [AppCH2ppG] | – | >250 nmol/kg | 0.45 ± 0.30 nmol/kg | >250 nmol/kg | (209) μg/kg | 0.45 ± 0.30 nmol/kg | (0.376) μg/kg | 17500 nmol | 31.5 nmol | 10 nmol | 0.018 nmol
3 | ~50000 nM | 84 ± 140 nM | Nc1ncnc2c1ncn2[C@@H](CO)O[C@@H](CO)COP(=O)(O)OP(=O)(O)CP(=O)(O)OP(=O)(O)OC[C@H](CO)O[C@H](CO)n1cnc2c(N)ncnc21 [AdiolppCH2ppAdiol] | – | ~125 nmol/kg | 0.21 ± 0.35 nmol/kg | ~125 nmol/kg | (104) μg/kg | 0.21 ± 0.35 nmol/kg | (0.175) μg/kg | 8750 nmol | 14.7 nmol | 5 nmol | 0.0084 nmol
